{"source": "paper PMC10600239", "about": "“Selective MCL-1 inhibitor ABBV-467 is efficacious in tumor models but is associated with cardiac troponin increases in patients” (Communications Medicine, 2023)", "tested_on": "AMO-1 xenografts", "experiment": "AMO-1 xenograft efficacy (tumor volume, body weight)", "assay_type": "in vivo, mouse", "design": "key to Anti-tumor Activity vs. AMO-1 (DSMZ), Median / Anti-tumor Activity vs. AMO-1 (DSMZ), individual animal / Anti-tumor Activity vs. AMO-1 (DSMZ), Mean: tumor volume in mm^3 (length × width^2/2)", "experimental": "All animal studies were conducted in accordance with the guidelines approved by the Institutional Animal Care and Use Committees of AbbVie. The research protocol was approved by In Vivo Pharmacology at AbbVie prior to study initiation but was not publicly registered or disclosed. Female C.B-17 SCID-beige mice (AMO-1, OPM-2, NCI-H929, and OCI-AML2 xenografts) and female NSG mice (MV4-11-Red.Fluc systemic) were purchased from Charles River Laboratories (Wilmington, MA). Animals were housed in a light cycle-controlled room with HEPA filtration at 22 °C. Animals had nesting and climbing cage topper as the primary environmental enrichment. Animals were inoculated subcutaneously in the right flank with 5 × 10^6 (AMO-1, OPM-2, NCI-H929, and OCI-AML2) or intravenous (IV) with 5 × 10^6 (MV4-11-Red.Fluc). The inoculation volume (0.2 mL) comprised a 50:50 mixture of cells in growth media and Matrigel (BD Biosciences) for subcutaneous injections and 100% phosphate-buffered saline for IV administration. All cell lines used in this publication were authenticated using IDEXX for STR profiling as well as their IMPACT and human IMPACT panels for pathogen screening. Electronic calipers were used to measure the length and width of each tumor 2 to 3 times per week. Tumor volume was estimated by applying the following equation: volume = length × width^2/2. All groups remained blinded during measurements and dosing; only veterinary staff were aware of group identity. When tumors reached approximately 200 mm^3, mice were randomized by match and distributed into treatment and control groups. All xenograft trials were conducted using 5 to 10 mice per group, and all mice were ear tagged and monitored individually throughout the studies. […] Tumor burden in the systemic MV4-11-Red.Fluc experiment was measured using an IVIS® spectrum from PerkinElmer by taking the total photon flux of the entire dorsal side of an individual mouse. […] A background control mouse that was tumor naive but received D-Luciferin was placed in the upper left corner of each image. The total flux from this animal was subtracted from the total flux of each animal present in the image.\nFor in vivo studies, maximal tumor growth inhibition (TGI) was calculated as the greatest treatment response using the following equation: Maximal TGI = (1 − mean tumor volume of the treated group/mean tumor volume of the vehicle control group) × 100. The tumor growth delay (TGD) percentage was determined as the percentage increase of the median time period for the treatment group to reach an arbitrary tumor volume of 1000 mm^3 relative to the vehicle control group. […] A power analysis was conducted using historical data to determine the number of animals required to yield significance of 0.05 at a 30% difference. […] Data from experiments in vivo were analyzed using the student’s t-test for TGI values and the Mann–Whitney U test for TGD using Excel and GraphPad Prism. Fisher’s exact test was used to probe significance of differences in response frequency.", "key": {"[1]": {"conditions": "3.13 mg/kg IV QDx1, Day 13 (day before dosing begins)"}, "[2]": {"conditions": "3.13 mg/kg QDx1 IV, Day 26, n=8"}}, "note": "Several values for one entry are separate records, joined by “and”; a condition that tells them apart may be missing. Identical values can stand only once."}
{"smiles": "Cc1c(Cl)c2c(Cl)c(C)c1-c1c(-c3ccc(F)cc3)sc3ncnc(c13)O[C@@H](C(=O)O)Cc1cc(ccc1OCc1ccnc(-c3ccc(OC[C@H]4COCCO4)cc3)n1)OC[C@@H](CN1CCN(C)CC1)O2", "note": "[Compound A-1747745.0]", "values": [{"measurement": "Starting Body Wt.", "setting": "3.13 mg/kg IV QDx1, AMO-1 xenograft, SCID-beige mice, in g (unit assumed)", "result": 21.625}, {"measurement": "% Mortality", "setting": "3.13 mg/kg IV QDx1, clinical observation", "result": 100.00, "unit": "%"}, {"measurement": "Anti-tumor Activity vs. AMO-1 (DSMZ), Mean", "setting": "3.13 mg/kg IV QDx1, day 13", "result": 216.27}, {"measurement": "Anti-tumor Activity vs. AMO-1 (DSMZ), Median", "setting": "3.13 mg/kg IV QDx1, day 13", "result": 216.30}, {"measurement": "Anti-tumor Activity vs. AMO-1 (DSMZ), individual animal", "setting": "3.13 mg/kg IV QDx1, day 13", "result": "219 and 210 and 215 and 217 and 224 and 221 and 209 and 214"}, {"measurement": "Group Mean, Body Weight", "setting": "3.13 mg/kg IV QDx1, day 14", "result": 21.63, "unit": "g"}, {"measurement": "Anti-tumor Activity vs. AMO-1 (DSMZ), Mean", "setting": "3.13 mg/kg IV QDx1, day 16", "result": 205.11}, {"measurement": "Anti-tumor Activity vs. AMO-1 (DSMZ), Median", "setting": "3.13 mg/kg IV QDx1, day 16", "result": 207.59}, {"measurement": "Anti-tumor Activity vs. AMO-1 (DSMZ), individual animal", "setting": "3.13 mg/kg IV QDx1, day 16", "result": "195 and 171 and 227 and 217 and 219 and 212 and 203 and 196"}, {"measurement": "Anti-tumor Activity vs. AMO-1 (DSMZ), Mean", "setting": "3.13 mg/kg IV QDx1, day 19", "result": 192.25}, {"measurement": "Anti-tumor Activity vs. AMO-1 (DSMZ), Median", "setting": "3.13 mg/kg IV QDx1, day 19", "result": 202.67}, {"measurement": "Anti-tumor Activity vs. AMO-1 (DSMZ), individual animal", "setting": "3.13 mg/kg IV QDx1, day 19", "result": "210 and 196 and 181 and 173 and 128 and 213 and 209 and 227"}, {"measurement": "Anti-tumor Activity vs. AMO-1 (DSMZ), Mean", "setting": "3.13 mg/kg IV QDx1, day 21", "result": 316.72}, {"measurement": "Anti-tumor Activity vs. AMO-1 (DSMZ), Median", "setting": "3.13 mg/kg IV QDx1, day 21", "result": 336.29}, {"measurement": "Anti-tumor Activity vs. AMO-1 (DSMZ), individual animal", "setting": "3.13 mg/kg IV QDx1, day 21", "result": "248 and 370 and 418 and 238 and 111 and 349 and 477 and 324"}, {"measurement": "Anti-tumor Activity vs. AMO-1 (DSMZ), Mean", "setting": "3.13 mg/kg IV QDx1, day 23", "result": 463.98}, {"measurement": "Anti-tumor Activity vs. AMO-1 (DSMZ), Median", "setting": "3.13 mg/kg IV QDx1, day 23", "result": 467.27}, {"measurement": "Anti-tumor Activity vs. AMO-1 (DSMZ), individual animal", "setting": "3.13 mg/kg IV QDx1, day 23", "result": "595 and 419 and 553 and 359 and 205 and 462 and 647 and 473"}, {"measurement": "Group Mean, Body Weight", "setting": "3.13 mg/kg IV QDx1, day 23", "result": 22.13, "unit": "g"}, {"measurement": "Anti-tumor Activity vs. AMO-1 (DSMZ), Mean", "setting": "3.13 mg/kg IV QDx1, day 26", "result": 740.25}, {"measurement": "Anti-tumor Activity vs. AMO-1 (DSMZ), Median", "setting": "3.13 mg/kg IV QDx1, day 26", "result": 757.36}, {"measurement": "Anti-tumor Activity vs. AMO-1 (DSMZ), individual animal", "setting": "3.13 mg/kg IV QDx1, day 26", "result": "859 and 654 and 702 and 664 and 464 and 884 and 882 and 812"}, {"measurement": "Anti-tumor Activity vs. AMO-1 (DSMZ), Mean", "setting": "3.13 mg/kg IV QDx1, day 28", "result": 1102.63}, {"measurement": "Anti-tumor Activity vs. AMO-1 (DSMZ), Median", "setting": "3.13 mg/kg IV QDx1, day 28", "result": 1024.93}, {"measurement": "Anti-tumor Activity vs. AMO-1 (DSMZ), individual animal", "setting": "3.13 mg/kg IV QDx1, day 28", "result": "1383 and 753 and 968 and 881 and 872 and 1157 and 1725 and 1082"}, {"measurement": "Group Mean, Body Weight", "setting": "3.13 mg/kg IV QDx1, day 28", "result": 22.38, "unit": "g"}, {"measurement": "Anti-tumor Activity vs. AMO-1 (DSMZ), Mean", "setting": "3.13 mg/kg IV QDx1, day 30", "result": 1440.23}, {"measurement": "Anti-tumor Activity vs. AMO-1 (DSMZ), Median", "setting": "3.13 mg/kg IV QDx1, day 30", "result": 1430.49}, {"measurement": "Anti-tumor Activity vs. AMO-1 (DSMZ), individual animal", "setting": "3.13 mg/kg IV QDx1, day 30", "result": "1812 and 984 and 1324 and 1150 and 1149 and 1537 and 1916 and 1649"}, {"measurement": "Anti-tumor Activity vs. AMO-1 (DSMZ), Mean", "setting": "3.13 mg/kg IV QDx1, day 34", "result": 2233.47}, {"measurement": "Anti-tumor Activity vs. AMO-1 (DSMZ), Median", "setting": "3.13 mg/kg IV QDx1, day 34", "result": 2203.67}, {"measurement": "Anti-tumor Activity vs. AMO-1 (DSMZ), individual animal", "setting": "3.13 mg/kg IV QDx1, day 34", "result": "2874 and 1660 and 1699 and 1719 and 1802 and 2605 and 2742 and 2768"}, {"measurement": "Xenograft AMO-1 (DSMZ) tumor volume Day 13, Mean", "setting": "[1]", "result": 216.27, "unit": "mm³"}, {"measurement": "Xenograft AMO-1 (DSMZ) tumor volume Day 13, Median", "setting": "[1]", "result": 216.30, "unit": "mm³"}, {"measurement": "% T/C (mean)", "setting": "3.13 mg/kg IV QDx1, Day 13 (day before dosing begins), mean(T)/mean(C)", "result": 100.07, "unit": "%"}, {"measurement": "% T/C (median)", "setting": "3.13 mg/kg IV QDx1, Day 13 (day before dosing begins), median(T)/median(C)", "result": 100.06, "unit": "%"}, {"measurement": "Xenograft AMO-1 (DSMZ) (mm³) Day 13, individual animals", "setting": "3.13 mg/kg IV QDx1, SCID-beige female mice, Day 13 (randomization, day before dosing begins)", "result": "219 mm³ and 210 mm³ and 215 mm³ and 217 mm³ and 224 mm³ and 221 mm³ and 209 mm³ and 214 mm³"}, {"measurement": "Xenograft AMO-1 (DSMZ) tumor volume Day 26, Mean", "setting": "[2]", "result": 740.25, "unit": "mm³"}, {"measurement": "Xenograft AMO-1 (DSMZ) tumor volume Day 26, Median", "setting": "[2]", "result": 757.36, "unit": "mm³"}]}
